The numbers were not newly measured in US20140243418A1, “RASAGILINE FOR PARKINSON'S DISEASE MODIFICATION” (Teva Pharmaceutical Industries, Ltd., priority 2008, published 2014), which cites them from elsewhere.

The test system of data set [1] is Parkinson's disease. The settings on record: three doses tested; time to need for levodopa as primary endpoint; cited from earlier work.
Data set [2] deals with T1, Type-B Monoamine Oxidase (MAO-B) (Homo sapiens, UniProt P27338).
T1 sequence (P27338 1-520): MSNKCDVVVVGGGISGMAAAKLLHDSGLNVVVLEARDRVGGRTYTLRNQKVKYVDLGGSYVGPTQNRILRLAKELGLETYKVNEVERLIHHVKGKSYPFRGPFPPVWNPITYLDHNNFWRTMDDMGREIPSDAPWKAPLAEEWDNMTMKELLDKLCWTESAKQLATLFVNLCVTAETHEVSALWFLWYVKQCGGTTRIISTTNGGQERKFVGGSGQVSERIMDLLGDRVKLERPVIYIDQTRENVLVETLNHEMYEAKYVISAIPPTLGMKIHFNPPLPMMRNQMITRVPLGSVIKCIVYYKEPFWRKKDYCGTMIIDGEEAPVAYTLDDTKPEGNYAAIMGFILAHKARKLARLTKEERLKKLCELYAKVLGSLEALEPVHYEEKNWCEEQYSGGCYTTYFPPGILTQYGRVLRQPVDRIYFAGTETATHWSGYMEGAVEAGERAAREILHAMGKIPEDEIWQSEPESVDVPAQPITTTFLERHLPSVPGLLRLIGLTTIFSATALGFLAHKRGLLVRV
The settings on record: cited from earlier work.

For data set [3], the system named is Parkinson's disease. The settings on record: 12 months of treatment and 2 months of drug wash-out; vs placebo; cited from earlier work.

Turning to `C#CCN(C)CC1=Cc2ccccc2Oc2ccccc21.O=C(O)/C=C\C(=O)O` [TCH346], the “effect on primary or secondary endpoints” value in the data set with Parkinson's disease [1] was “did not demonstrate a positive effect”. In data set [2], the “inhibition of Type-B Monoamine Oxidase (MAO-B)” value is reported as “did not inhibit”.

Turning to `C#CCN(C)[C@H](C)Cc1ccccc1` [selegiline], the “deterioration from baseline in UPDRS motor score” value in the data set with Parkinson's disease [3] is recorded as “less deterioration from baseline than patients treated with placebo”.
